The values below are quoted from earlier work in article PMC3202968 (Journal of the American Chemical Society, 2010).

As to `Cc1cc(C)nc(N)c1` [2-amino-4,6-dimethylpyridine], the pKa result is “about 7.1”.
